Read-outs that look alike come from different tables or passages of the source.
Legend:
MLKL (full length) = MLKL (full length) (Homo sapiens (Human), UniProt Q8NB16); test: KINOMEscan binding assay, MLKL (full length)
Method: (§1) Kinase assays. For most assays, kinase-tagged T7 phage strains were grown in parallel in 24-well blocks in an E. coli host derived from the BL21 strain. E. coli were grown to log-phase and infected with T7 phage from a frozen stock (multiplicity of infection=0.4) and incubated with shaking at 32° C. until lysis (90-150 minutes).
(§2) The Hill Slope was set to −1.

endogenous MLKL in U937 = endogenous MLKL in U937 (Homo sapiens (Human), UniProt Q8NB16); test: Degradation assay: degradation of endogenous MLKL in human cells (Western blot); conditions: 24 h incubation, read-out: Degradation of endogenous MLKL in U937 (DC50 cell-based assay in μM)
Method: DEGRADATION ASSAY: Screening Compounds Procedure to Evaluate the Activity of Compounds in Degrading Endogenous MLKL in Human Cell
The human monocyte cell line (U937) was seeded on the day of the experiment in a 24-well plate at a cell density of 5*10^5 cells per well in a volume of 0.5 mL per well.
The compound was diluted in DMSO with a starting concentration of 10 mM and titrated stepwise with a dilution of 1:5. 0.5 μL of the compound dilution was added to the appropriate well to achieve a final concentration of 10; 2; 0.4; 0.08 and 0.016 μM. A DMSO only well was included as control.
The cells were incubated for 24 h in the presence of the compound at 37° C. and 10% CO2.
After the 24 h incubation period, the medium was removed and cells washed with 0.5 mL PBS. The cells were then lysed directly in 60 μL of 1×SDS gel loading buffer.
The cell lysate was heat-denatured at […] for 10 min. 10 μL of lysate per well were run on 18-well 4-15% Criterion TGX stain free gels (BIO-RAD). The proteins were then transferred onto nitrocellulose membrane with a wet transfer protocol in the Criterion Blotter (BIO-RAD).
Membranes were blocked with 5% skim milk in TBST. Primary antibody against MLKL (clone 3H1, MABC604 Merck) was used at 1:2000 dilution in TBST with 1% BSA and left shaking over night at 4° C. After washes with TBST, the membranes were incubated with goat anti-rat IgG HRP-conjugated antibody (Southern Biotech) in 1% skim milk TBST at 1:10000 dilution for 1 h at room temperature. After TBST washes the bands were imaged on the ChemiDoc MP Imaging Systm (BIO-RAD) with Immobilion Western Chemiluminescent HRP Substrate Forte (Millipore). The loading control GAPDH was probed for with rabbit anti-GAPDH (CST 14C10) at 1:2000 dilution in 1% BSA TBST over night at 4° C. TBST washes were followed by incubation with goat anti-rabbit IgG HRP-conjugated antibody (Southern Biotech) in 1% skim milk TBST at 1:10000 dilution for 1 h at room temperature followed by TBST washes. The signal was detected as described above.
The band intensity was measured in the ImageLab Software (BIO-RAD) and the MLKL values adjusted for loading with GAPDH. The percentage of degradation was calculated by normalizing the compound treated values to the DMSO only control.

[1] = test system: U937 human histiocytic leukemia cell line; test: Cellular assay: inhibition of TSQ induced necroptosis (CellTitre-Glo); conditions: U937 cells, TSQ cocktail, 48 hours, read-out: Inhibition of TSQ-induced necroptosis (IC50 cell-based assay)
How it was run: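 U937 cells (20,000/well) pre-dosed with compound (10-point, 1:3 from 36 μM, 0.3% DMSO), then TSQ (hTNF-Fc 100 ng/ml, Smac mimetic 500 nM, Q-VD-OPh 10 μM) for 48 h at 37 °C. Viability by CellTiter-Glo luminescence, normalised to DMSO (100%) and DMSO+TSQ (0%); IC50 from 4-parameter fit.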

U937 cells = test: Counter screen: cell viability without TSQ cocktail (off-target effect); parameters: species or system human
Method: Counter screen: In parallel, all compounds were tested for their ability to affect cell viability. The same U937 cells were treated with compound in DMSO without the TSQ cocktail. This counter screen enabled evaluation of off-target effects. In this case, cell viability was measured by CelltiterGlo.

RIP3 = RIP3 (Homo sapiens (Human), UniProt Q9Y572); test: KINOMEscan binding assay, RIP3; conditions: Table 35
Method: as §1, §2

RIP1 = RIP1 (Homo sapiens (Human), UniProt Q13546); test: KINOMEscan binding assay, RIP1; conditions: Table 35
[2] = Homo sapiens, U-937, Table 38, read-out: Off-target effect (IC50 cell-based assay)
[3] = Homo sapiens, U-937, Table 37, read-out: Off-target effect (IC50 cell-based assay)

Sequence of RIP1 (Q13546 whole entry): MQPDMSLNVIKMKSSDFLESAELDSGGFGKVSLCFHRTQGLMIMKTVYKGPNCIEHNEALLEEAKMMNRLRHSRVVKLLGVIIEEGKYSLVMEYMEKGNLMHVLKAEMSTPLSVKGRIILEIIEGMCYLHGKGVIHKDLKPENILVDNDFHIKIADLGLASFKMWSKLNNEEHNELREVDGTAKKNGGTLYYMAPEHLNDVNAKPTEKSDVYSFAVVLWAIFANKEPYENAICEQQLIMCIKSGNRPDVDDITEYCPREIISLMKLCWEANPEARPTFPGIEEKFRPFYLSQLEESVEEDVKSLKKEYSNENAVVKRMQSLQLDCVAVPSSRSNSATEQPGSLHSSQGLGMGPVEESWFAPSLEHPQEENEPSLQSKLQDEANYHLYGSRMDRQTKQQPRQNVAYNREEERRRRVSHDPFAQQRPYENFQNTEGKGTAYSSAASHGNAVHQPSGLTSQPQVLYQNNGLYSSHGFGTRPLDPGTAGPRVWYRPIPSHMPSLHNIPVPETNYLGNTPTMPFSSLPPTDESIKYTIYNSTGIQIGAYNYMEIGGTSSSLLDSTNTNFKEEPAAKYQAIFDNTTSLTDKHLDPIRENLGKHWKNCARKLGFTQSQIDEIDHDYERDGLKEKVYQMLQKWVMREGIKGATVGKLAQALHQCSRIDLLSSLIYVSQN
Sequence of RIP3 (Q9Y572 whole entry): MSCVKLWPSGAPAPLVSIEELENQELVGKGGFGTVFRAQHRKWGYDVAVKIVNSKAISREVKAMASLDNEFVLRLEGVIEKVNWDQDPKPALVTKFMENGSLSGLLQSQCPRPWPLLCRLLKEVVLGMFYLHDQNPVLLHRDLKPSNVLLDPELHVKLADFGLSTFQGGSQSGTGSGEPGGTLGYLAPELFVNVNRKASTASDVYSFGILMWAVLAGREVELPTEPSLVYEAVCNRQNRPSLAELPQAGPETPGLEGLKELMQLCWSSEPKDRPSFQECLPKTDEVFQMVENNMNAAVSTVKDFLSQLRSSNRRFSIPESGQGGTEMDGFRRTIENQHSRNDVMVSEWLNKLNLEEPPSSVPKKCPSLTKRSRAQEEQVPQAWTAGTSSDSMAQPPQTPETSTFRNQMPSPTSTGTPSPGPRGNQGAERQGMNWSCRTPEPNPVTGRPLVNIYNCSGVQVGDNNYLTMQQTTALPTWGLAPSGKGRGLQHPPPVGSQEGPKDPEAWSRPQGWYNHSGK
Sequence of endogenous MLKL in U937 (Q8NB16 whole entry): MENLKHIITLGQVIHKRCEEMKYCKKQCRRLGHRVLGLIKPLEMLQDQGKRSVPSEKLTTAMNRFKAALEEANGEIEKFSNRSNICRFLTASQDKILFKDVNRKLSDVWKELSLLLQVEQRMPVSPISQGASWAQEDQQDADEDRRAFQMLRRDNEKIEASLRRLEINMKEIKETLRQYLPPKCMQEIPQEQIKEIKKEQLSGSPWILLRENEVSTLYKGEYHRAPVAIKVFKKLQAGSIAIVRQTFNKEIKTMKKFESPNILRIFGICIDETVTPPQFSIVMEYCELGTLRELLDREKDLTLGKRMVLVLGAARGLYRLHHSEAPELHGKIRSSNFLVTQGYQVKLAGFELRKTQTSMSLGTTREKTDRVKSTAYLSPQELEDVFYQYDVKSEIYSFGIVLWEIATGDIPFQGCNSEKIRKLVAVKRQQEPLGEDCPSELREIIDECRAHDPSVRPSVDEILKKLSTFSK
Sequence of MLKL (full length) (Q8NB16 whole entry): as above

| Kd (RIP3) [µM] | Kd (RIP1) [µM] | Kd (MLKL (full length); Table 35) [µM] | SMILES | Kd (MLKL (full length); Table 36) [µM] | DC50 (endogenous MLKL in U937) [µM] | IC50 ([1]; Homo sapiens, U-937, Table 38) [µM] | IC50 (U937 cells; [2]) [µM] | IC50 ([1]; Table 37) [µM] | IC50 (U937 cells; Table 37, read-out: Off-target effect (IC50 cell-based assay)) [µM] | IC50 ([1]; Homo sapiens, U-937, Table 37) [µM] | IC50 (U937 cells; [3]) [µM] |
| --- | --- | --- | --- | --- | --- | --- | --- | --- | --- | --- | --- |
|  |  |  | Cc1ncsc1-c1ccc(CNC(=O)[C@@H]2C[C@@H](O)CN2C(=O)[C@@H](NC(=O)CCCCCCn2ccc(Nc3[nH]nc(-c4ccc(NS(=O)(=O)C(F)F)c(O[C@@H](C)c5ccc(F)cc5)c4)c3C(N)=O)n2)C(C)(C)C)cc1 [Compound 1040, 3-[4-(difluoromethanesulfonamido)-3-[(1S)-1-(4-fluorophenyl)ethoxy]phenyl]-5-{[1-(6-{[(2S)-1-[(2S,4R)-4-hydroxy-2-({[4-(4-methyl-1,3-thiazol-5-yl)phenyl]methyl}carbamoyl)pyrrolidin-1-yl]-3,3-dimethyl-1-oxobutan-2-yl]carbamoyl}hexyl)-1H-pyrazol-3-yl]amino}-1H-pyrazole-4-carboxamide] | < 0.01 | 1 to 10 | < 1 | > 10 |  |  |  |  |
|  |  |  | CCS(=O)(=O)Nc1ccc(-c2n[nH]c(Nc3ccnc(OCCOCCOCCOCCOCCOCCNC(=O)COc4cccc5c4C(=O)N(C4CCC(=O)NC4=O)C5=O)c3)c2C(N)=O)cc1 (stereo not shown) [Compound 1005, 5-[(2-{[17-(2-{[2-(2,6-dioxopiperidin-3-yl)-1,3-dioxo-2,3-dihydro-1H-isoindol-4-yl]oxy}acetamido)-3,6,9,12,15-pentaoxaheptadecan-1-yl]oxy}pyridin-4-yl)amino]-3-(4-ethanes-ulfonamidophenyl)-1H-pyrazole-4-carboxamide] | < 0.01 | 1 to 10 | > 10 | > 10 |  |  |  |  |
|  |  |  | CCS(=O)(=O)Nc1ccc(-c2n[nH]c(Nc3ccnc(OCCCCC(=O)N[C@H](C(=O)N4C[C@H](O)C[C@H]4C(=O)NCc4ccc(-c5scnc5C)cc4)C(C)(C)C)c3)c2C(N)=O)cc1 [Compound 1013, 3-(4-ethanesulfonamidophenyl)-5-{[2-(4-{[(2S)-1-[(2S,4R)-4-hydroxy-2-({[4-(4-methyl-1,3-thiazol-5-yl)phenyl]methyl}carbamoyl)pyrrolidin-1-yl]-3,3-dimethyl-1-oxobutan-2-yl]carbamoyl}butoxy)pyridin-4-yl]amino}-1H-pyrazole-4-carboxamide] | < 0.01 | 1 to 10 | 1 to 10 | > 10 |  |  |  |  |
|  |  |  | CCS(=O)(=O)Nc1ccc(-c2n[nH]c(Nc3ccc(C(=O)OCC(=O)N[C@H](C(=O)N4C[C@H](O)C[C@H]4C(=O)NCc4ccc(-c5scnc5C)cc4)C(C)(C)C)cn3)c2C(N)=O)cc1O[C@@H](C)c1ccc(F)cc1 [Compound 1041, {[(2S)-1-[(2S,4R)-4-hydroxy-2-({[4-(4-methyl-1,3-thiazol-5-yl)phenyl]methyl}carbamoyl)pyrrolidin-1-yl]-3,3-dimethyl-1-oxobutan-2-yl]carbamoyl}methyl 6-[(4-carbamoyl-3-{4-ethanesulfonamido-3-[(1S)-1-(4-fluorophenyl)ethoxy]phenyl}-1H-pyrazol-5-yl)amino]pyridine-3-carboxylate] | < 0.01 | < 1 | < 1 | > 10 |  |  |  |  |
| 1 to 30 | > 30 | < 0.01 | CCS(=O)(=O)Nc1ccc(-c2n[nH]c(Nc3cncc(C)n3)c2C(N)=O)cc1 [Compound 84, 3-(4-(ethylsulfonamido)phenyl)-5-((6-methylpyrazin-2-yl)amino)-1H-pyrazole-4-carboxamide] |  |  |  |  |  |  | 1 to 30 | > 30 |
| > 30 | > 30 | < 0.01 | NC(=O)c1c(-c2ccc(NS(=O)(=O)Cc3cccc(Cl)c3)cc2)n[nH]c1Nc1cccc(C(F)(F)F)n1 [Compound 9, 3-(4-(((3-chlorophenyl)methyl)sulfonamido)phenyl)-5-((6-(trifluoromethyl)pyridin-2-yl)amino)-1H-pyrazole-4-carboxamide] |  |  |  |  |  |  | 0.01 to 1 | > 30 |
| > 30 | > 30 | < 0.01 | Cc1cc(Nc2[nH]nc(-c3ccc(NS(=O)(=O)C(F)F)c(O[C@@H](C)c4ccc(F)cc4)c3)c2C(N)=O)nn1C [Compound 285, (S)-3-(4-((difluoromethyl)sulfonamido)-3-(1-(4-fluorophenyl)ethoxy)phenyl)-5-((1,5-dimethyl-1H-pyrazol-3-yl)amino)-1H-pyrazole-4-carboxamide] |  |  |  |  |  |  | < 0.01 | > 30 |
|  |  |  | Cc1ncsc1-c1ccc(CNC(=O)[C@@H]2C[C@@H](O)CN2C(=O)[C@@H](NC(=O)c2ccc(COc3ccc(Nc4[nH]nc(-c5ccc(NS(=O)(=O)C(F)F)c(O[C@@H](C)c6ccc(F)cc6)c5)c4C(N)=O)nc3)cc2)C(C)(C)C)cc1 [Compound 1030, 3-[4-(difluoromethanesulfonamido)-3-[(1S)-1-(4-fluorophenyl)ethoxy]phenyl]-5-({5-[(4-{[(2S)-1-[(2S,4R)-4-hydroxy-2-({[4-(4-methyl-1,3-thiazol-5-yl)phenyl]methyl}carbamoyl)pyrrolidin-1-yl]-3,3-dimethyl-1-oxobutan-2-yl]carbamoyl}phenyl)methoxy]pyridin-2-yl}amino)-1H-pyrazole-4-carboxamide] |  | < 1 | < 1 | > 10 |  |  |  |  |
|  |  |  | Cc1ncsc1-c1ccc(CNC(=O)[C@@H]2C[C@@H](O)CN2C(=O)[C@@H](NC(=O)CCCCOc2ccc(Nc3[nH]nc(-c4ccc(NS(=O)(=O)C(F)F)c(OCc5ccc(F)cc5)c4)c3C(N)=O)nc2)C(C)(C)C)cc1 [Compound 1025, 3-[4-(difluoromethanesulfonamido)-3-[(4-fluorophenyl)methoxy]phenyl]-5-{[5-(4-{[(2S)-1-[(2S,4R)-4-hydroxy-2-({[4-(4-methyl-1,3-thiazol-5-yl)phenyl]methyl}carbamoyl)pyrrolidin-1-yl]-3,3-dimethyl-1-oxobutan-2-yl]carbamoyl}butoxy)pyridin-2-yl]amino}-1H-pyrazole-4-carboxamide] |  | < 1 | < 1 | > 10 |  |  |  |  |
| > 30 | > 30 | < 0.01 | C[C@H](Oc1cc(-c2n[nH]c(Nc3cnccn3)c2C(N)=O)ccc1NS(=O)(=O)CC(F)(F)F)c1cccc(F)c1 [Compound 265, 3-{3-[(1S)-1-(3-fluorophenyl)ethoxy]-4-(2,2,2-trifluoroethanesulfonamido)phenyl}-5-[(pyrazin-2-yl)amino]-1H-pyrazole-4-carboxamide] |  |  |  |  |  |  | 1 to 30 | > 30 |

| SMILES | Kd (RIP3) [µM] | Kd (RIP1) [µM] | Kd (MLKL (full length); Table 35) [µM] | Kd (MLKL (full length); Table 36) [µM] | DC50 (endogenous MLKL in U937) [µM] | IC50 ([1]; Homo sapiens, U-937, Table 38) [µM] | IC50 (U937 cells; [2]) [µM] | IC50 ([1]; Table 37) [µM] | IC50 (U937 cells; Table 37, read-out: Off-target effect (IC50 cell-based assay)) [µM] | IC50 ([1]; Homo sapiens, U-937, Table 37) [µM] | IC50 (U937 cells; [3]) [µM] |
| --- | --- | --- | --- | --- | --- | --- | --- | --- | --- | --- | --- |
| Cc1cnc(Nc2[nH]nc(-c3ccc(NS(=O)(=O)C(F)F)c(OCc4ccc(F)c(F)c4)c3)c2C(N)=O)cn1 [Compound 291, 3-(3-((3,4-difluoro-benzyl)oxy)-4-((difluoro-methyl)sulfon-amido)phenyl)-5-((5-methyl-pyrazin-2-yl)amino)-1H-pyrazole-4-carboxamide] | > 30 | > 30 | < 0.01 |  |  |  |  | < 0.01 | 1 to 30 |  |  |
| CCS(=O)(=O)Nc1ccc(-c2c(C(N)=O)c(Nc3cnccn3)nn2C)cc1 [Compound 222, 5-(4-(ethylsulfonamido)phenyl)-1-methyl-3-(pyrazin-2-ylamino)-1H-pyrazole-4-carboxamide] | > 30 | > 30 | < 0.01 |  |  |  |  |  |  | 1 to 30 | > 30 |

Source: patent publication US20250074891A1 (Anaxis Pharma Pty Ltd., priority 2021, published 2025)
